pIC50: −log10 of the molar value.
Assays:
[1] = test system: A2780; assay: Cytotoxicity against human A2780 cells; type: functional, cell-based
[2] = test system: K562; assay: Cytotoxicity against human K562 cells; type: functional, cell-based

CC(C)[C@@H](C)[C@@]1(C)C[C@@H]1[C@@H](C)[C@H]1CC[C@@H]([C@H]2C(=O)[C@@]3(C)CC[C@H](O)C[C@@]34O[C@H]4[C@@H]2O)[C@]1(C)CCO
pIC50 [1]: 5.20
pIC50 [2]: 5.15

— ChEMBL document CHEMBL1158675, “A bioactive secosterol with an unusual A- and B-ring oxygenation pattern isolated from an Indonesian soft coral Lobophytum sp” (J Nat Prod, 1998)
